Data published in US20230115274A1, “COMPOUNDS AND COMPOSITIONS FOR TREATING CONDITIONS ASSOCIATED WITH STING ACTIVITY” (IFM Due, Inc., priority 2019, published 2023).

Each compound was assayed against T1, hSTING (Homo sapiens, UniProt Q86WV6, G230A/H232R/R293Q/R71H) (assay: STING reporter assay (luciferase) in THP1-Dual KO-IFNAR2 cells stimulated with 2′3′cGAMP). Details: 2′3′cGAMP 15 μM, 24 h, class symbols.
T1 construct: host or cells: THP1-Dual KO-IFNAR2 cells
Format: cell-based
Method: STING pathway activation by the compounds described herein was measured using THP1-Dual™ cells (KO-IFNAR2).
THP1-Dual™ KO-IFNAR2 Cells (obtained from invivogen) were maintained in RPMI, 10% FCS, 5 ml P/S, 2 mM L-glut, 10 mM Hepes, and 1 mM sodium pyruvate. Compounds were spotted in empty 384 well tissue culture plates (Greiner 781182) by Echo for a final concentration of 0.0017-100 μM. Cells were plated into the TC plates at […], 2×10E6 cells/mL. For activation with STING ligand, 2′3′cGAMP (MW 718.38, obtained from Invivogen), was prepared in Optimem media.
The following solutions were prepared for each 1×384 plate: • Solution A: 2 mL Optimem with one of the following stimuli: • […] • Solution B: 2 mL Optimem with 60 μL Lipofectamine 2000->Incubate 5 min at RT
2 mL of solution A and 2 ml Solution B was mixed and incubated for 20 min at room temperature (RT). 20 uL of transfection solution (A+B) was added on top of the plated cells, with a final 2′3′cGAMP concentration of 15 μM. The plates were then centrifuged immediately at 340 g for 1 minute, after which they were incubated at 37° C., 5% CO2, >98% humidity for 24 h. Luciferase reporter activity was then measured. EC50 values were calculated by using standard methods known in the art.
Luciferase reporter assay: 10 μL of supernatant from the assay was transferred to white 384-plate with flat bottom and squared wells. One pouch of QUANTI-Luc™ Plus was dissolved in 25 mL of water. 100 μL of QLC Stabilizer per 25 mL of QUANTI-Luc™ Plus solution was added. 50 μL of QUANTI-Luc™ Plus/QLC solution per well was then added. Luminescence was measured on a Platereader (e.g., Spectramax I3X (Molecular Devices GF3637001)).
Luciferase reporter activity was then measured. EC50 values were calculated by using standard methods known in the art.

T1 sequence (Q86WV6 whole entry R71H/G230A/H232R/R293Q): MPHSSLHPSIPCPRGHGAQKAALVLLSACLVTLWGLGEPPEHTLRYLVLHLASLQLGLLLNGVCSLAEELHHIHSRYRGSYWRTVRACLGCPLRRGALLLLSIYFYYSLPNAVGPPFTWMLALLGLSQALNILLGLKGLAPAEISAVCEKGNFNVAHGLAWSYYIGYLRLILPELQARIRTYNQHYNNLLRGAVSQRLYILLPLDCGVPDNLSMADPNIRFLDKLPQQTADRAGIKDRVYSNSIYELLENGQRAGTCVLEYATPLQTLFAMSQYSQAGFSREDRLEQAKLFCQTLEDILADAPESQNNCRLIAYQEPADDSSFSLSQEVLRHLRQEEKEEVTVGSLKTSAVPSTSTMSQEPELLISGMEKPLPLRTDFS

Row | Compound | EC50 [nM]
1 | COC1CCN(c2ncc(NC(=O)Nc3c[nH]c4ncc(F)cc34)cc2C)CC1 [Compound 194, 1-(5-fluoro-1H-pyrrolo[2,3-b]pyridin-3-yl)-3-(6-(4-methoxypiperidin-1-yl)-5-methylpyridin-3-yl)urea] | 1000 to 5000
2 | O=C(Nc1cnc(N2CC3(CN(CC(F)(F)F)C3)C2)c(Cl)c1)Nc1c[nH]c2cccnc12 [Compound 224, 1-(5-chloro-6-(6-(2,2,2-trifluoroethyl)-2,6-diazaspiro[3.3]heptan-2-yl)pyridin-3-yl)-3-(1H-pyrrolo[3,2-b]pyridin-3-yl)urea] | 5000 to 100000
3 | N#Cc1cc(NC(=O)Nc2c[nH]c3cccnc23)cnc1C1CCC(F)(F)CC1 [Compound 237, 1-(5-cyano-6-(4,4-difluorocyclohexyl)pyridin-3-yl)-3-(1H-pyrrolo[3,2-b]pyridin-3-yl)urea] | 1000 to 5000
4 | CC(C)(C)OC(=O)N1CCC(n2cc(NC(=O)Nc3ccc(C4CCC(F)(F)CC4)nc3)c3cc(F)cnc32)CC1 [Compound 103, tert-butyl 4-(3-(3-(6-(4,4-difluorocyclohexyl)pyridin-3-yl)ureido)-5-fluoro-1H-pyrrolo[2,3-b]pyridin-1-yl)piperidine-1-carboxylate] | 5000 to 100000
5 | O=C(Nc1ccc(NC2CCC2)nc1)Nc1c[nH]c2ncc(F)cc12 [Compound 112, 1-(6-(cyclobutylamino)pyridin-3-yl)-3-(5-fluoro-1H-pyrrolo[2,3-b]pyridin-3-yl)urea] | 1000 to 5000
6 | O=C(Nc1ccc(C2CCC(F)(F)CC2)nc1)Nc1c[nH]c2ncc(F)c(Br)c12 [Compound 182, 1-(4-bromo-5-fluoro-1H-pyrrolo[2,3-b]pyridin-3-yl)-3-(6-(4,4-difluorocyclohexyl)pyridin-3-yl)urea] | 5000 to 100000
7 | O=C(Nc1cnc(N2CCC3(CCCCO3)CC2)c(Cl)c1)Nc1c[nH]c2cccnc12 [Compound 215, 1-(5-chloro-6-(1-oxa-9-azaspiro[5.5]undecan-9-yl)pyridin-3-yl)-3-(1H-pyrrolo[3,2-b]pyridin-3-yl)urea] | 1000 to 5000
8 | CN(C)c1ccc2[nH]cc(NC(=O)Nc3cnc(N4CCC(F)(F)CC4)c(F)c3)c2n1 [Compound 175, 1-(6-(4,4-difluoropiperidin-1-yl)-5-fluoropyridin-3-yl)-3-(5-(dimethylamino)-1H-pyrrolo[3,2-b]pyridin-3-yl)urea] | 5000 to 100000

The next lines start with the values.

Row | EC50 [nM] | Compound
9 | 1000 to 5000 | O=C(Nc1cc(Cl)nc(C2CCC(F)(F)CC2)c1)Nc1c[nH]c2cccnc12 [Compound 217, 1-(2-chloro-6-(4,4-difluorocyclohexyl)pyridin-4-yl)-3-(1H-pyrrolo[3,2-b]pyridin-3-yl)urea]
10 | 200 to 1000 | COc1ccc2[nH]cc(NC(=O)Nc3cnc(N4CCC(F)(F)CC4)c(Cl)c3)c2n1 [Compound 141, 1-(5-chloro-6-(4,4-difluoropiperidin-1-yl)pyridin-3-yl)-3-(5-methoxy-1H-pyrrolo[3,2-b]pyridin-3-yl)urea]
11 | 200 to 1000 | O=C(Nc1ccc(C2CC(F)(F)C2)c(F)c1)Nc1c[nH]c2ncc(F)cc12 [Compound 201, 1-(4-(3,3-difluorocyclobutyl)-3-fluorophenyl)-3-(5-fluoro-1H-pyrrolo[2,3-b]pyridin-3-yl)urea]
12 | 40 to 200 | O=C(Nc1cnc(N2CCC(F)(F)CC2)c(Cl)c1)Nc1c[nH]c2ncc(F)cc12 [Compound 110, 1-(5-chloro-6-(4,4-difluoropiperidin-1-yl)pyridin-3-yl)-3-(5-fluoro-1H-pyrrolo[2,3-b]pyridin-3-yl)urea]
13 | 40 to 200 | O=C(Nc1cnc(N2CCC(F)(F)CC2)c(Cl)c1)Nc1c[nH]c2ccc(Br)nc12 [Compound 236, 1-(5-bromo-1H-pyrrolo[3,2-b]pyridin-3-yl)-3-(5-chloro-6-(4,4-difluoropiperidin-1-yl)pyridin-3-yl)urea]
14 | 200 to 1000 | N#Cc1cc(NC(=O)Nc2c[nH]c3ncc(Cl)cc23)cnc1C1CCC(F)(F)CC1 [Compound 151, 1-(5-chloro-1H-pyrrolo[2,3-b]pyridin-3-yl)-3-(5-cyano-6-(4,4-difluorocyclohexyl)pyridin-3-yl)urea]
15 | 200 to 1000 | COc1cnc2[nH]cc(NC(=O)Nc3cnc(N4CCC(F)(F)CC4)c(C)c3)c2c1 [Compound 168, 1-(6-(4,4-difluoropiperidin-1-yl)-5-methylpyridin-3-yl)-3-(5-methoxy-1H-pyrrolo[2,3-b]pyridin-3-yl)urea]
16 | 200 to 1000 | CC(=O)n1cc(NC(=O)Nc2ccc(C3CCC(F)(F)CC3)nc2)c2cc(F)cnc21 [Compound 122, 1-(1-acetyl-5-fluoro-1H-pyrrolo[2,3-b]pyridin-3-yl)-3-(6-(4,4-difluorocyclohexyl)pyridin-3-yl)urea]
17 | 40 to 200 | N#Cc1cc(NC(=O)Nc2c[nH]c3ncc(F)cc23)ccc1C1CCC(F)(F)CC1 [Compound 195, 1-(3-cyano-4-(4,4-difluorocyclohexyl)phenyl)-3-(5-fluoro-1H-pyrrolo[2,3-b]pyridin-3-yl)urea]
18 | 200 to 1000 | O=C(Nc1cnc(N2CCC(F)(F)CC2)c(Cl)c1)Nc1c[nH]c2cccnc12 [Compound 188, 1-(5-chloro-6-(4,4-difluoropiperidin-1-yl)pyridin-3-yl)-3-(1H-pyrrolo[3,2-b]pyridin-3-yl)urea]
19 | 200 to 1000 | COc1ccc2[nH]cc(NC(=O)Nc3cnc(N4CCC(F)(F)CC4)c(F)c3)c2n1 [Compound 187, 1-(6-(4,4-difluoropiperidin-1-yl)-5-fluoropyridin-3-yl)-3-(5-methoxy-1H-pyrrolo[3,2-b]pyridin-3-yl)urea]
20 | 200 to 1000 | COc1ccc2[nH]cc(NC(=O)Nc3ccc(C4CC(F)(F)C4)c(F)c3)c2n1 [Compound 238, 1-(4-(3,3-difluorocyclobutyl)-3-fluorophenyl)-3-(5-methoxy-1H-pyrrolo[3,2-b]pyridin-3-yl)urea]
21 | 200 to 1000 | COc1ccc2[nH]cc(NC(=O)Nc3cnc(N4CCC(F)(F)CC4)c(C)c3)c2n1 [Compound 173, 1-(6-(4,4-difluoropiperidin-1-yl)-5-methylpyridin-3-yl)-3-(5-methoxy-1H-pyrrolo[3,2-b]pyridin-3-yl)urea]
22 | 200 to 1000 | O=C(Nc1cnc(C2CC(F)(F)C2)c(Cl)c1)Nc1c[nH]c2cccnc12 [Compound 143, 1-(5-chloro-6-(3,3-difluorocyclobutyl)pyridin-3-yl)-3-(1H-pyrrolo[3,2-b]pyridin-3-yl)urea]
23 | 200 to 1000 | O=C(Nc1ccc(N2CCC(F)(F)CC2)nc1)Nc1c[nH]c2ncc(F)cc12 [Compound 118, 1-(6-(4,4-difluoropiperidin-1-yl)pyridin-3-yl)-3-(5-fluoro-1H-pyrrolo[2,3-b]pyridin-3-yl)urea]
24 | 200 to 1000 | O=C(Nc1cnc(N2CCC(F)(F)CC2)c(Cl)c1)Nc1c[nH]c2ncccc12 [Compound 189, 1-(5-chloro-6-(4,4-difluoropiperidin-1-yl)pyridin-3-yl)-3-(1H-pyrrolo[2,3-b]pyridin-3-yl)urea]
25 | 200 to 1000 | O=C(Nc1cnc(N2CCC(F)(F)CC2)cn1)Nc1c[nH]c2ncc(F)cc12 [Compound 191, 1-(5-(4,4-difluoropiperidin-1-yl)pyrazin-2-yl)-3-(5-fluoro-1H-pyrrolo[2,3-b]pyridin-3-yl)urea]

Same assay, conditions: 2′3′cGAMP 15 μM, 24 h, numeric bounds

Row | EC50 [nM] | Compound
26 | > 30000 | COc1ccc2[nH]cc(NC(=O)Nc3cnn(C4CCC(F)(F)CC4)c3)c2n1 [Compound 209, 1-(1-(4,4-difluorocyclohexyl)-1H-pyrazol-4-yl)-3-(5-methoxy-1H-pyrrolo[3,2-b]pyridin-3-yl)urea]
27 | > 30000 | O=C(Nc1ccc(C2CCC(F)(F)CC2)nc1)Nc1cn(C2CCNCC2)c2ncc(F)cc12 [Compound 128, 1-(6-(4,4-difluorocyclohexyl)pyridin-3-yl)-3-(5-fluoro-1-(piperidin-4-yl)-1H-pyrrolo[2,3-b]pyridin-3-yl)urea]
28 | > 30000 | O=C(Nc1cnn(CC2CCC(F)(F)CC2)c1)Nc1c[nH]c2cccnc12 [Compound 206, 1-(1-((4,4-difluorocyclohexyl)methyl)-1H-pyrazol-4-yl)-3-(1H-pyrrolo[3,2-b]pyridin-3-yl)urea]
29 | > 30000 | CS(=O)(=O)n1cc(NC(=O)Nc2ccc(C3CCC(F)(F)CC3)nc2)c2cc(F)cnc21 [Compound 197, 1-(6-(4,4-difluorocyclohexyl)pyridin-3-yl)-3-(5-fluoro-1-(methylsulfonyl)-1H-pyrrolo[2,3-b]pyridin-3-yl)urea]
30 | > 30000 | Cn1cc(NC(=O)Nc2ccc(C3CCC(F)(F)CC3)nc2)c2cc(F)cnc21 [Compound 127, 1-(6-(4,4-difluorocyclohexyl)pyridin-3-yl)-3-(5-fluoro-1-methyl-1H-pyrrolo[2,3-b]pyridin-3-yl)urea]
31 | > 30000 | Cc1cc(NC(=O)Nc2c[nH]c3ncc(F)cc23)cnc1N1CC2(CC(O)C2)C1 [Compound 156, 1-(5-fluoro-1H-pyrrolo[2,3-b]pyridin-3-yl)-3-(6-(6-hydroxy-2-azaspiro[3.3]heptan-2-yl)-5-methylpyridin-3-yl)urea]
